# According to PubChem BioAssay AID330 (DTP/NCI, 2004):
# Several values for one entry are separate records, joined by “and”; a condition that tells them apart may be missing. Equal values may be shown once. Inconclusive results and toxic doses are left out.
# Test system: P388 leukemia ip, CD2F1 mice, survival T/C
# Test: NCI In Vivo Anticancer Drug Screen. Data for tumor model P388 Leukemia (intraperitoneal) in CD2F1 (CDF1) mice
# Settings: endpoint: median survival time, higher = longer survival
# Procedure, shortened: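 Mice carrying the transplanted tumor received test compound or vehicle. Survival was recorded in each group, and the value is the treated-group measurement divided by that of the vehicle-treated control group.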
smiles,measurement,setting,value
CO[C@@]12[C@H](COC(N)=O)C3=C(C(=O)C(C)=C(N)C3=O)N1C[C@@H]1N[C@@H]12,T/C,"dose: 0.25 mg/kg/injection, schedule: Q01DX009 (ip), vehicle: saline with Tween-80",160 % of control and 166 % of control
same,T/C,"dose: 0.5 mg/kg/injection, schedule: Q01DX009 (ip), vehicle: saline with Tween-80",150 % of control and 157 % of control and 210 % of control
same,T/C,"dose: 0.5 mg/kg/injection, schedule: Q04DX003 (ip), vehicle: saline",112 % of control
same,T/C,"dose: 0.65 mg/kg/injection, schedule: Q04DX002 (ip), vehicle: saline",160 % of control
same,T/C,"dose: 0.75 mg/kg/injection, schedule: Q04DX003 (ip), vehicle: saline",150 % of control and 163 % of control
same,T/C,"dose: 0.75 mg/kg/injection, schedule: Q04DX003 (ip), vehicle: water",170 % of control
same,T/C,"dose: 0.78 mg/kg/injection, schedule: Q04DX003 (ip), vehicle: saline",152 % of control and 153 % of control
same,T/C,"dose: 0.97 mg/kg/injection, schedule: Q04DX003 (ip), vehicle: saline",150 % of control
same,T/C,"dose: 1.0 mg/kg/injection, schedule: Q01DX009 (ip), vehicle: saline with Tween-80",166 % of control and 169 % of control
same,T/C,"dose: 1.08 mg/kg/injection, schedule: Q04DX002 (ip), vehicle: saline",164 % of control
same,T/C,"dose: 1.1 mg/kg/injection, schedule: Q04DX003 (ip), vehicle: water",159 % of control
same,T/C,"dose: 1.3 mg/kg/injection, schedule: Q04DX002 (ip), vehicle: saline",163 % of control
same,T/C,"dose: 1.3 mg/kg/injection, schedule: Q04DX003 (ip), vehicle: saline",174 % of control and 180 % of control
same,T/C,"dose: 1.5 mg/kg/injection, schedule: Q04DX003 (ip), vehicle: saline",155 % of control and 161 % of control and 183 % of control
same,T/C,"dose: 1.5 mg/kg/injection, schedule: Q04DX003 (ip), vehicle: water",163 % of control and 200 % of control
same,T/C,"dose: 1.62 mg/kg/injection, schedule: Q04DX003 (ip), vehicle: saline",163 % of control
same,T/C,"dose: 1.8 mg/kg/injection, schedule: Q04DX002 (ip), vehicle: saline",175 % of control
same,T/C,"dose: 1.8 mg/kg/injection, schedule: Q04DX003 (ip), vehicle: water",174 % of control
same,T/C,"dose: 2.0 mg/kg/injection, schedule: Q01DX009 (ip), vehicle: saline with Tween-80",104 % of control and 120 % of control
same,T/C,"dose: 2.0 mg/kg/injection, schedule: Q04DX003 (ip), vehicle: saline",163 % of control
same,T/C,"dose: 2.16 mg/kg/injection, schedule: Q04DX002 (ip), vehicle: saline",162 % of control
same,T/C,"dose: 2.16 mg/kg/injection, schedule: Q04DX003 (ip), vehicle: saline",155 % of control (2×) and 174 % of control
same,T/C,"dose: 2.7 mg/kg/injection, schedule: Q04DX003 (ip), vehicle: saline",183 % of control and 204 % of control
same,T/C,"dose: 3.0 mg/kg/injection, schedule: Q01DX001 (ip), vehicle: saline",169 % of control
same,T/C,"dose: 3.0 mg/kg/injection, schedule: Q04DX002 (ip), vehicle: saline",212 % of control
same,T/C,"dose: 3.0 mg/kg/injection, schedule: Q04DX003 (ip), vehicle: water",190 % of control and 197 % of control
same,T/C,"dose: 3.5 mg/kg/injection, schedule: Q01DX001 (ip), vehicle: carboxymethylcellulose (CMC)",183 % of control
same,T/C,"dose: 3.6 mg/kg/injection, schedule: Q01DX001 (ip), vehicle: water",175 % of control and 176 % of control
same,T/C,"dose: 3.6 mg/kg/injection, schedule: Q04DX002 (ip), vehicle: saline",159 % of control
same,T/C,"dose: 3.6 mg/kg/injection, schedule: Q04DX003 (ip), vehicle: saline",184 % of control and 220 % of control and 235 % of control
same,T/C,"dose: 4.0 mg/kg/injection, schedule: Q01DX001 (ip), vehicle: saline",156 % of control and 167 % of control
same,T/C,"dose: 4.0 mg/kg/injection, schedule: Q04DX003 (ip), vehicle: saline",150 % of control
same,T/C,"dose: 4.4 mg/kg/injection, schedule: Q01DX001 (ip), vehicle: saline",158 % of control
same,T/C,"dose: 4.5 mg/kg/injection, schedule: Q04DX003 (ip), vehicle: saline",219 % of control
same,T/C,"dose: 4.7 mg/kg/injection, schedule: Q01DX001 (ip), vehicle: saline",174 % of control
same,T/C,"dose: 5.0 mg/kg/injection, schedule: Q04DX002 (ip), vehicle: saline",157 % of control
same,T/C,"dose: 5.0 mg/kg/injection, schedule: Q04DX003 (ip), vehicle: water",228 % of control
same,T/C,"dose: 5.3 mg/kg/injection, schedule: Q01DX001 (ip), vehicle: carboxymethylcellulose (CMC)",191 % of control
same,T/C,"dose: 5.4 mg/kg/injection, schedule: Q01DX001 (ip), vehicle: water",184 % of control and 206 % of control and 216 % of control
same,T/C,"dose: 6.0 mg/kg/injection, schedule: Q01DX001 (ip), vehicle: saline",162 % of control and 166 % of control and 255 % of control
same,T/C,"dose: 6.0 mg/kg/injection, schedule: Q04DX002 (ip), vehicle: saline",120 % of control
same,T/C,"dose: 6.7 mg/kg/injection, schedule: Q01DX001 (ip), vehicle: saline",188 % of control
same,T/C,"dose: 7.0 mg/kg/injection, schedule: Q01DX001 (ip), vehicle: saline",165 % of control
same,T/C,"dose: 7.5 mg/kg/injection, schedule: Q04DX003 (ip), vehicle: saline",122 % of control
same,T/C,"dose: 8.0 mg/kg/injection, schedule: Q01DX001 (ip), vehicle: water",178 % of control and 222 % of control and 280 % of control
same,T/C,"dose: 8.3 mg/kg/injection, schedule: Q04DX003 (ip), vehicle: water",87 % of control
Cc1c(C)[n+](=O)c2ccc(/C=[N+](\C)[O-])cc2n1[O-],T/C,"dose: 50.0 mg/kg/injection, schedule: Q01DX009 (ip), vehicle: Klucel (hydroxypropylcellulose) (HPC)",98 % of control
same,T/C,"dose: 100.0 mg/kg/injection, schedule: Q01DX009 (ip), vehicle: Klucel (hydroxypropylcellulose) (HPC)",100 % of control
same,T/C,"dose: 200.0 mg/kg/injection, schedule: Q01DX009 (ip), vehicle: Klucel (hydroxypropylcellulose) (HPC)",101 % of control
O=C1OCN2C(=O)CCC12 (stereo unspecified),T/C,"dose: 60.0 mg/kg/injection, schedule: Q01DX005 (ip), vehicle: saline",109 % of control
same,T/C,"dose: 120.0 mg/kg/injection, schedule: Q01DX005 (ip), vehicle: saline",97 % of control
same,T/C,"dose: 240.0 mg/kg/injection, schedule: Q01DX005 (ip), vehicle: saline",86 % of control
COc1ccc(-c2c(C(N)=O)cnc(C)c2C)c(OCc2ccccc2)c1OC,T/C,"dose: 0.05 mg/kg/injection, schedule: Q01DX009 (ip), vehicle: water",104 % of control
same,T/C,"dose: 0.1 mg/kg/injection, schedule: Q01DX009 (ip), vehicle: water",117 % of control
same,T/C,"dose: 0.2 mg/kg/injection, schedule: Q01DX009 (ip), vehicle: water",104 % of control
same,T/C,"dose: 0.4 mg/kg/injection, schedule: Q01DX009 (ip), vehicle: water",103 % of control and 117 % of control
same,T/C,"dose: 0.8 mg/kg/injection, schedule: Q01DX009 (ip), vehicle: water",106 % of control
same,T/C,"dose: 1.6 mg/kg/injection, schedule: Q01DX009 (ip), vehicle: water",106 % of control
same,T/C,"dose: 3.2 mg/kg/injection, schedule: Q01DX009 (ip), vehicle: water",109 % of control
same,T/C,"dose: 6.25 mg/kg/injection, schedule: Q01DX009 (ip), vehicle: other",98 % of control
same,T/C,"dose: 6.4 mg/kg/injection, schedule: Q01DX009 (ip), vehicle: water",109 % of control
same,T/C,"dose: 12.5 mg/kg/injection, schedule: Q01DX009 (ip), vehicle: other",101 % of control
same,T/C,"dose: 25.0 mg/kg/injection, schedule: Q01DX009 (ip), vehicle: other",103 % of control
same,T/C,"dose: 50.0 mg/kg/injection, schedule: Q01DX009 (ip), vehicle: other",105 % of control
same,T/C,"dose: 100.0 mg/kg/injection, schedule: Q01DX009 (ip), vehicle: other",105 % of control
same,T/C,"dose: 200.0 mg/kg/injection, schedule: Q01DX009 (ip), vehicle: other",104 % of control
same,T/C,"dose: 400.0 mg/kg/injection, schedule: Q01DX009 (ip), vehicle: other",107 % of control
CN1c2cc3ccccc3cc2N(C)c2cc3ccccc3cc21,T/C,"dose: 50.0 mg/kg/injection, schedule: Q01DX005 (ip), vehicle: Klucel (hydroxypropylcellulose) (HPC)",90 % of control
same,T/C,"dose: 200.0 mg/kg/injection, schedule: Q01DX005 (ip), vehicle: Klucel (hydroxypropylcellulose) (HPC)",88 % of control
N#CC1(OC2OC(CO)C(O)C(O)C2O)C=CC(O)C1O (stereo unspecified),T/C,"dose: 25.0 mg/kg/injection, schedule: Q01DX005 (ip), vehicle: saline",106 % of control
same,T/C,"dose: 50.0 mg/kg/injection, schedule: Q01DX005 (ip), vehicle: saline",120 % of control
same,T/C,"dose: 100.0 mg/kg/injection, schedule: Q01DX005 (ip), vehicle: saline",111 % of control and 97 % of control
same,T/C,"dose: 200.0 mg/kg/injection, schedule: Q01DX005 (ip), vehicle: saline",121 % of control and 97 % of control
same,T/C,"dose: 400.0 mg/kg/injection, schedule: Q01DX005 (ip), vehicle: saline",102 % of control
NCCn1[nH]c(=O)c2ccncc2c1=O,T/C,"dose: 100.0 mg/kg/injection, schedule: Q04DX002 (ip), vehicle: saline with Tween-80",94 % of control
same,T/C,"dose: 200.0 mg/kg/injection, schedule: Q04DX002 (ip), vehicle: saline with Tween-80",92 % of control
same,T/C,"dose: 400.0 mg/kg/injection, schedule: Q04DX002 (ip), vehicle: saline with Tween-80",92 % of control
O=c1[nH]cc(O)c(=O)[nH]1,T/C,"dose: 167.0 mg/kg/injection, schedule: Q01DX009 (ip), vehicle: saline with Tween-80",95 % of control
same,T/C,"dose: 267.0 mg/kg/injection, schedule: Q01DX009 (ip), vehicle: saline with Tween-80",113 % of control
same,T/C,"dose: 400.0 mg/kg/injection, schedule: Q01DX009 (ip), vehicle: saline with Tween-80",104 % of control
same,T/C,"dose: 600.0 mg/kg/injection, schedule: Q01DX009 (ip), vehicle: saline with Tween-80",109 % of control
